ChEMBL document CHEMBL1201862, “PubChem BioAssay data set” (2004)
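All cell lines were grown in 96-well plates and treated with compound for 48 hours. GI50 marks 50% less growth.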 The source made the active and inactive calls. Cut-off read from the data, not from the text of the source: active = GI50 up to about 1.1 µM and inactive = higher.

Key:
Assay in all cases: DTP human tumour cell line panel, 48 h
786-0 = test system: 786-0
A549 = test system: A549
ACHN = test system: ACHN
BT-549 = test system: BT-549
CAKI-1 = test system: CAKI-1
CCRF-CEM = test system: CCRF-CEM
COLO 205 = test system: COLO 205
DU-145 = test system: DU-145
EKVX = test system: EKVX
HCC 2998 = test system: HCC 2998
HCT-116 = test system: HCT-116
HCT-15 = test system: HCT-15
HOP-62 = test system: HOP-62
HOP-92 = test system: HOP-92
HT-29 = test system: HT-29
IGROV-1 = test system: IGROV-1
K562 = test system: K562
KM12 = test system: KM12
LOX IMVI = test system: LOX IMVI
M14 = test system: M14
MCF7 = test system: MCF7
MDA-MB-231 = test system: MDA-MB-231
MDA-MB-435 = test system: MDA-MB-435
MDA-N = test system: MDA-N
MOLT-4 = test system: MOLT-4
Malme-3M = test system: Malme-3M
NCI-H226 = test system: NCI-H226
NCI-H23 = test system: NCI-H23
NCI-H460 = test system: NCI-H460
NCI-H522 = test system: NCI-H522
NCI/ADR-RES = test system: NCI/ADR-RES
OVCAR-3 = test system: OVCAR-3
OVCAR-4 = test system: OVCAR-4
OVCAR-5 = test system: OVCAR-5
OVCAR-8 = test system: OVCAR-8
PC-3 = test system: PC-3
RPMI-8226 = test system: RPMI-8226
RXF 393 = test system: RXF 393
SF-295 = test system: SF-295
SF-539 = test system: SF-539
SK-MEL-28 = test system: SK-MEL-28
SK-MEL-2 = test system: SK-MEL-2
SK-MEL-5 = test system: SK-MEL-5
SK-OV-3 = test system: SK-OV-3
SN12C = test system: SN12C
SNB-19 = test system: SNB-19
SNB-75 = test system: SNB-75
SR = test system: SR
SW-620 = test system: SW-620
T47D = test system: T47D
TK-10 = test system: TK-10
U-251 = test system: U-251
UACC-257 = test system: UACC-257
UACC-62 = test system: UACC-62
UO-31 = test system: UO-31
A498 = test system: A498
HL-60 = test system: HL-60
SF-268 = test system: SF-268

Compound: N#CCCN(C(=O)Nc1ccccc1)[C@H]1CCCC[C@@H]1N(C(=O)Nc1ccccc1)c1ccccc1
- GI50 (786-0): > 100 µM (inactive)
- GI50 (A549): 58.1 µM (inactive)
- GI50 (ACHN): > 100 µM (inactive)
- GI50 (BT-549): > 100 µM (inactive)
- GI50 (CAKI-1): > 100 µM (inactive)
- GI50 (CCRF-CEM): 30.1 µM (inactive)
- GI50 (COLO 205): 83 µM (inactive)
- GI50 (DU-145): > 100 µM (inactive)
- GI50 (EKVX): 65.5 µM (inactive)
- GI50 (HCC 2998): 73.3 µM (inactive)
- GI50 (HCT-116): 66.7 µM (inactive)
- GI50 (HCT-15): > 100 µM
- GI50 (HOP-62): > 100 µM (inactive)
- GI50 (HOP-92): > 100 µM (inactive)
- GI50 (HT-29): 43 µM (inactive)
- GI50 (IGROV-1): 61 µM (inactive)
- GI50 (K562): 49.1 µM (inactive)
- GI50 (KM12): 32.8 µM (inactive)
- GI50 (LOX IMVI): > 100 µM (inactive)
- GI50 (M14): 64.7 µM (inactive)
- GI50 (MCF7): 48.2 µM (inactive)
- GI50 (MDA-MB-231): > 100 µM (inactive)
- GI50 (MDA-MB-435): > 100 µM (inactive)
- GI50 (MDA-N): > 100 µM (inactive)
- GI50 (MOLT-4): 25.1 µM (inactive)
- GI50 (Malme-3M): > 100 µM (inactive)
- GI50 (NCI-H226): 77.8 µM (inactive)
- GI50 (NCI-H23): > 100 µM (inactive)
- GI50 (NCI-H460): 48.2 µM (inactive)
- GI50 (NCI-H522): 71.1 µM (inactive)
- GI50 (NCI/ADR-RES): > 100 µM (inactive)
- GI50 (OVCAR-3): > 100 µM (inactive)
- GI50 (OVCAR-4): 64.6 µM (inactive)
- GI50 (OVCAR-5): > 100 µM (inactive)
- GI50 (OVCAR-8): > 100 µM (inactive)
- GI50 (PC-3): 48.1 µM (inactive)
- GI50 (RPMI-8226): 36.7 µM (inactive)
- GI50 (RXF 393): 35.6 µM (inactive)
- GI50 (SF-295): 55.7 µM (inactive)
- GI50 (SF-539): > 100 µM (inactive)
- GI50 (SK-MEL-28): > 100 µM (inactive)
- GI50 (SK-MEL-2): > 100 µM (inactive)
- GI50 (SK-MEL-5): > 100 µM (inactive)
- GI50 (SK-OV-3): > 100 µM (inactive)
- GI50 (SN12C): > 100 µM (inactive)
- GI50 (SNB-19): 22.2 µM (inactive)
- GI50 (SNB-75): 16.7 µM (inactive)
- GI50 (SR): 19.3 µM (inactive)
- GI50 (SW-620): 72.6 µM (inactive)
- GI50 (T47D): > 100 µM (inactive)
- GI50 (TK-10): > 100 µM (inactive)
- GI50 (U-251): > 100 µM (inactive)
- GI50 (UACC-257): > 100 µM (inactive)
- GI50 (UACC-62): > 100 µM (inactive)
- GI50 (UO-31): 54.2 µM (inactive)

Compound: CC(=O)/N=C1\NC(=O)/C(=C/c2ccc(/C=C3/C(=O)N/C(=N\C(C)=O)N3C)cc2)N1C
- GI50 (786-0): > 100 µM (inactive)
- GI50 (A498): > 100 µM (inactive)
- GI50 (A549): > 100 µM (inactive)
- GI50 (ACHN): > 100 µM (inactive)
- GI50 (BT-549): > 100 µM (inactive)
- GI50 (CAKI-1): > 100 µM (inactive)
- GI50 (COLO 205): > 100 µM (inactive)
- GI50 (DU-145): > 100 µM (inactive)
- GI50 (EKVX): > 100 µM (inactive)
- GI50 (HCC 2998): > 100 µM (inactive)
- GI50 (HCT-116): > 100 µM (inactive)
- GI50 (HCT-15): > 100 µM
- GI50 (HL-60): 47.3 µM (inactive)
- GI50 (HOP-62): > 100 µM (inactive)
- GI50 (HOP-92): > 100 µM (inactive)
- GI50 (HT-29): > 100 µM (inactive)
- GI50 (IGROV-1): > 100 µM (inactive)
- GI50 (KM12): > 100 µM (inactive)
- GI50 (LOX IMVI): > 100 µM (inactive)
- GI50 (M14): > 100 µM (inactive)
- GI50 (MCF7): > 100 µM (inactive)
- GI50 (MDA-MB-231): > 100 µM (inactive)
- GI50 (MDA-MB-435): > 100 µM (inactive)
- GI50 (MDA-N): > 100 µM (inactive)
- GI50 (MOLT-4): > 100 µM (inactive)
- GI50 (NCI-H226): > 100 µM (inactive)
- GI50 (NCI-H23): > 100 µM (inactive)
- GI50 (NCI-H460): > 100 µM (inactive)
- GI50 (NCI/ADR-RES): > 100 µM (inactive)
- GI50 (OVCAR-3): > 100 µM (inactive)
- GI50 (OVCAR-4): > 100 µM (inactive)
- GI50 (OVCAR-5): > 100 µM (inactive)
- GI50 (OVCAR-8): > 100 µM (inactive)
- GI50 (RXF 393): > 100 µM (inactive)
- GI50 (SF-268): > 100 µM (inactive)
- GI50 (SF-295): > 100 µM (inactive)
- GI50 (SF-539): > 100 µM (inactive)
- GI50 (SK-MEL-28): > 100 µM (inactive)
- GI50 (SK-MEL-2): > 100 µM (inactive)
- GI50 (SK-MEL-5): > 100 µM (inactive)
- GI50 (SK-OV-3): > 100 µM (inactive)
- GI50 (SN12C): > 100 µM (inactive)
- GI50 (SNB-19): > 100 µM (inactive)
- GI50 (SNB-75): > 100 µM (inactive)
- GI50 (SW-620): > 100 µM (inactive)
- GI50 (T47D): > 100 µM (inactive)
- GI50 (TK-10): > 100 µM (inactive)
- GI50 (U-251): > 100 µM (inactive)
- GI50 (UACC-257): > 100 µM (inactive)
- GI50 (UACC-62): > 100 µM (inactive)
- GI50 (UO-31): > 100 µM (inactive)
